Source: US20260130906A1, “THERAPY COMPRISING ANTI-CD19 ANTIBODY AND SUMO-ACTIVATING ENZYME INHIBITOR” (TAKEDA PHARMACEUTICAL COMPANY LIMITED, priority 2021, published 2026)

Key:
[1] = tested on: Daudi human xenograft tumor model; test: Study 1: Daudi human xenograft tumor model; assay type: in vivo, CB17 SCID mice; details: for tumor growth inhibition as a single agent (in words): Daudi human Burkitt's lymphoma mouse model; for GRI % / Tumor volume on Day 21 (±SEM): Daudi; for GRI %: Day 21, vs vehicle; for Tumor volume on Day 21 (±SEM): in mm³ (unit assumed)
Experimental: The differences in the tumor growth trends over time between pairs of treatment groups were assessed by fitting each animal's data to a simple exponential growth model and comparing the mean growth rates of the two groups, as described in more detail below. The difference in the growth rates was summarized by the GRI, which is the reduction in growth rate experienced by the treatment group relative to that of the reference group, expressed as a fraction of the vehicle growth rate.
A GRI greater than 100% is interpreted as tumor regression when the vehicle group is the same as the reference group. A negative value of the GRI means that the tumors in the treatment group grew faster than the tumors in the reference group. Statistical significance was determined using an unpaired t-test.
Low tumor volumes can cause problems with the data analysis, so all measurements below 25 cubic mm (including 0 values) were excluded from the analysis. After this exclusion step, the tumor volume was assumed to follow an exponential growth model. […]
Daudi is a human Burkitt's Lymphoma cell line. A Daudi human xenograft tumor model was generated by subcutaneous inoculation in the flank of 9 week old female CB17 SCID mice (Charles River Laboratories, Wilmington, MA) with 2.0×10^6 Daudi cells (cell suspension in 0.1 ml RPMI with Matrigel 1:1). When the mean tumor volume reached approximately 140 mm^3, the animals were randomized into one vehicle control group and seven treatment groups (n=7/group) as described in Table 1a. Mice were then dosed with 20% HPβCD or Compound I-263a and/or tafasitamab over a 3 week period. In the combination treatment groups, I-263a was administered first, followed immediately by the administration of tafasitamab. Tumor growth and body weight were measured twice per week during the treatment and post-treatment periods, and mice were humanely euthanized once they had reached their humane endpoint. Tumors were measured using Vernier calipers and volumes were calculated using standard equation: V=W^2×L/2, where V=volume, W=width, and L=length for the tumor.
A 0.8625 mg/mL stock solution of I-263a was formulated weekly in 20% HPβCD and administered intravenously (IV) based on an average body weight using a 0.2 mL dosing volume. Final dose of I-263a received was 7.5 mg/kg. I-263a was administered on a BIW schedule for 3 weeks (Days 0, 4, 7, 11, 14, 18). Tafasitamab was formulated prior to each injection in 0.9% saline at 0.354, 1.15, and 2.3 mg/mL. Final dose of tafasitamab received was 3, 10, or 20 mg/kg based on average body weight. Tafasitamab was administered intraperitoneally (IP) using a 0.2 mL dosing volume, on a BIW schedule for 3 weeks (Days 0, 4, 7, 11, 14, 18). The vehicle group received IV treatment with the vehicle for I-263a (20% HPβCD) on a BIW schedule for three weeks (Days 0, 4, 7, 11, 14, 18).
Statistical analysis for growth rate inhibition was performed on data up to and including Day 21.

lymphoma cell lines = test: ADCC assay (PBMC effector cells); assay type: cell-based; details: PBMCs pre-treated 0.1 μM TAK-981 17-24 h and/or 1 nM tafasitamab; E:T 10:1; 2 h; FIG. 1
Experimental: A panel of 9 aggressive lymphoma cell lines was analyzed (7 DLBCL and 2 Burkitt lymphoma). OCI-LY10 and TMD8 cells were cultured in Iscove's modified Dulbecco medium supplemented with either 20% human plasma or 10% FCS. All other cell lines were cultured in RPMI medium (Gibco) supplemented with 10%-20% FCS (Sigma). Cells were cultured at 37° C. in 5% CO2.
Whole Blood was collected from healthy volunteers. PBMCs were isolated via density-gradient centrifugation using Biocoll (Biochrome) or Pancoll (PAN Biotech) separating solution and SepMate tubes (STEMCELL Technologies).
PBMC effector cells were treated with 0.1 μM TAK-981 or DMSO as negative control for 17-24 hours. Target cells were stained with 1 μM carboxyfluorescein succinimidyl ester (CFSE). Subsequently, target cells were incubated with pre-treated PBMCs at an effector to target (E:T) ratio of 10:1 in the presence or absence of 1 nM tafasitamab for 2 hours at 37° C. and 5% CO2. Dead cells were stained with 1 μg/ml 4′,6-diamidino-2-phenylindole (DAPI) and flow cytometry was used to determine cytotoxicity against target cells: Cells were gated for viable (DAPI negative) and dead target cells (DAPI positive). The specific cytotoxicity was defined as the percentages of dead target cells in the treated sample substracted by the percentage of dead target cells in the control sample without antibody.

Row | Compound | tumor growth inhibition as a single agent (in words) [1] | GRI % ([1]; I-263a 7.5 mg/kg IV BIW) [%] | Tumor volume on Day 21 (±SEM) ([1]; I-263a 7.5 mg/kg IV BIW 3 weeks) | Specific killing of lymphoma cell lines (specific cytotoxicity) (lymphoma cell lines) | GRI % ([1]; tafasitamab 3 mg/kg IP BIW) [%] | GRI % ([1]; tafasitamab 10 mg/kg IP BIW) [%] | GRI % ([1]; tafasitamab 20 mg/kg IP BIW) [%] | Tumor volume on Day 21 (±SEM) ([1]; tafasitamab 3 mg/kg IP BIW 3 weeks) | Tumor volume on Day 21 (±SEM) ([1]; tafasitamab 10 mg/kg IP BIW 3 weeks) | Tumor volume on Day 21 (±SEM) ([1]; tafasitamab 20 mg/kg IP BIW 3 weeks)
1 | Cc1sc(C(=O)c2cncnc2N[C@@H]2C[C@H](COS(N)(=O)=O)[C@@H](O)C2)cc1[C@@H]1NCCc2ccc(Cl)cc21 [Compound I-263a, [(1R,2S,4R)-4-{[5-({4-[(1R)-7-chloro-1,2,3,4-tetrahydroisoquinolin-1-yl]-5-methyl-2-thienyl}carbonyl)pyrimidin-4-yl]amino}-2-hydroxycyclopentyl]methyl sulfamate] | inhibits tumor growth | 32 | 1015.9 ± 137.9 | resulted in specific killing |  |  |  |  |  | 
2 | Tafasitamab: humanized monoclonal antibody that targets the antigen CD19, engineered in the IgG Fc-region to enhance ADCC; sequences in Table 1 | inhibits tumor growth |  |  | resulted in specific killing | 24 | 28 | 38 | 1142 ± 135.1 | 1132.7 ± 116.5 | 835.2 ± 89.1
